Measured values as given in PMC10465125 (eLife, 2023).
Entries after “also recorded” stand apart in the source; their conditions may differ.

Columns and labels:
SARS-CoV-2 omicron virus = experiment: microbe, parasite or virus in culture; type: cell-based
[1] = test system: SARS-CoV-2 spike Vpps of different variants (alpha, beta, gamma, delta, omicron); type: cell-based

Compound	EC50 against omicron variant virus production (SARS-CoV-2 omicron virus)	block of alpha, beta, gamma, delta, and omicron variants Vpp infection as well as wild-type Vpps [1]	suppression of infection by Vpp of wild type, alpha variant, gamma variant [1]	EC50 (SARS-CoV-2 omicron virus; Severe acute respiratory syndrome coronavirus 2, Vero C1008, read-out: EC50 against omicron variant virus production)	suppression of entry of Vpp of beta, delta and omicron variant [1]
tannic acid [reference compound]	5.27 µg/mL	could block	significant suppression		
O=C1O[C@H]2[C@@H]3OC(=O)c4cc(O)c(O)c(O)c4-c4c(O)c(O)c5oc(=O)c6c(c(O)c(O)c7oc(=O)c4c5c76)-c4c(cc(O)c(O)c4O)C(=O)OC[C@H]3OC(O)[C@@H]2OC(=O)c2cc(O)c(O)c(O)c2-c2c1cc(O)c(O)c2O (mixture of isomers) [Punicalagin, punicalagin]			significant suppression; also recorded: potent inhibitor	2.88 µg/mL	less potency and not
